Data as given in patent US9802921B2, “Fluoromethyl-substituted pyrrole carboxamides iv” (Grünenthal GmbH, priority 2013, dated 2017).

Biological target: T1, Human CaV2.2 channels (Homo sapiens, UniProt Q00975)
T1 construct: expressed in transfected cells
Experiment: Fluorescent assay for CaV2.2 channels using potassium depolarization to induce channel opening (FLIPR, Fluo 4)
Type: cell-based
Conditions: read-out: Activity Category: %-Inhib (CaV2.2) @3 μM @30 mM KCl; 3 μM test compound; 30 mM KCl as printed; HEK293 cells stably expressing human CaV2.2
Text: In the process, the Ca^2+ influx is quantified in the FLIPR assay with the aid of a Ca^2+-sensitive dye (type Fluo-4, Molecular Probes Europe BV, Leiden, the Netherlands) in a fluorescent imaging plate reader (FLIPR 3, Molecular Devices, Sunnyvale, USA), as described hereinafter.
Human CaV2.2 channels were stably expressed in HEK293 cells together with alpha2-delta and beta subunits of voltage gated calcium channels. In addition, an inwardly rectifying potassium channel (Kir2.3) was stably expressed in these cells to augment control of the cell membrane potential by the concentration of extracellular potassium ions. Raise of the extracellular potassium concentration leads to depolarization of the membrane potential and thus regulates the voltage dependent state of CaV2.2 channels. For preparation, cells were seeded in black poly-D-lysine coated 96-well plates (Becton Dickinson, Biocoat 4640) in 100 μL medium [500 mL DMEM/F-12 plus Glutamax (Invitrogen 31331-093) plus 5.5 mL MEM NEAA 100× (Invitrogen 11140-035) plus 50 mL FBS decomplemented (Invitrogen 10270-106) plus 200 μg/mL Geneticin (Invitrogen 10131-027) plus 50 μg/mL Hygromycin B (Invitrogen 10687-010) plus 2 μg/mL Blasticidin (anti-bl5b Invivo-Gen) plus 0.2 μg/mL Puromycin (A 11138-03)] at a cell density of 30.000 cells per well. Plates were incubated at 37° C. (5% CO2) for 20 to 23 h. On the day of experiment medium was discarded and cells were loaded with Fluo 4 by addition of 100 μL of basic assay buffer (10 mM HEPES, 1 mM KCl, 149 mM NaCl, 0.8 mM CaCl2, 1.7 mM MgCl2, 10 mM Glucose, 0.1% BSA. pH 7.4) containing 2 μM Fluo 4 (Molecular Probes; F-14201), 0.01% pluronic acid (Molecular Probes; P-6866) and 2.5 mM probenecid (Molecular Probes; P36400). Cells were incubated in the dark at 25° C. for 60 min. Then dye containing buffer was discarded and 100 μL basic (1 mM KCl) or alternative (30 mM KCl) assay buffer was added. The alternative assay buffer contained altered concentrations of KCl (30 mM) and NaCl (120 mM) and was used in order to promote the inactivated channel state. After that 25 μL of basic or alternative assay buffer with or without test compound were added and cells were incubated again in the dark at 25° C. for 15 min. Fluorescence intensity was measured on a FLIPR 3 instrument (Molecular Devices Corp., Sunnyvale, Calif.) with excitation at 480 nm and emission at 535 nm. After continuously reading fluorescence for 30 sec, 50 μL of basic assay buffer containing 210 mM KCl (NaCl omitted) were added for depolarization. Peak fluorescent signal intensity was determined and the amplitude of the peak signal, normalized to base line, was used to measure channel inhibition by test compounds.

T1 sequence (Q00975 whole entry): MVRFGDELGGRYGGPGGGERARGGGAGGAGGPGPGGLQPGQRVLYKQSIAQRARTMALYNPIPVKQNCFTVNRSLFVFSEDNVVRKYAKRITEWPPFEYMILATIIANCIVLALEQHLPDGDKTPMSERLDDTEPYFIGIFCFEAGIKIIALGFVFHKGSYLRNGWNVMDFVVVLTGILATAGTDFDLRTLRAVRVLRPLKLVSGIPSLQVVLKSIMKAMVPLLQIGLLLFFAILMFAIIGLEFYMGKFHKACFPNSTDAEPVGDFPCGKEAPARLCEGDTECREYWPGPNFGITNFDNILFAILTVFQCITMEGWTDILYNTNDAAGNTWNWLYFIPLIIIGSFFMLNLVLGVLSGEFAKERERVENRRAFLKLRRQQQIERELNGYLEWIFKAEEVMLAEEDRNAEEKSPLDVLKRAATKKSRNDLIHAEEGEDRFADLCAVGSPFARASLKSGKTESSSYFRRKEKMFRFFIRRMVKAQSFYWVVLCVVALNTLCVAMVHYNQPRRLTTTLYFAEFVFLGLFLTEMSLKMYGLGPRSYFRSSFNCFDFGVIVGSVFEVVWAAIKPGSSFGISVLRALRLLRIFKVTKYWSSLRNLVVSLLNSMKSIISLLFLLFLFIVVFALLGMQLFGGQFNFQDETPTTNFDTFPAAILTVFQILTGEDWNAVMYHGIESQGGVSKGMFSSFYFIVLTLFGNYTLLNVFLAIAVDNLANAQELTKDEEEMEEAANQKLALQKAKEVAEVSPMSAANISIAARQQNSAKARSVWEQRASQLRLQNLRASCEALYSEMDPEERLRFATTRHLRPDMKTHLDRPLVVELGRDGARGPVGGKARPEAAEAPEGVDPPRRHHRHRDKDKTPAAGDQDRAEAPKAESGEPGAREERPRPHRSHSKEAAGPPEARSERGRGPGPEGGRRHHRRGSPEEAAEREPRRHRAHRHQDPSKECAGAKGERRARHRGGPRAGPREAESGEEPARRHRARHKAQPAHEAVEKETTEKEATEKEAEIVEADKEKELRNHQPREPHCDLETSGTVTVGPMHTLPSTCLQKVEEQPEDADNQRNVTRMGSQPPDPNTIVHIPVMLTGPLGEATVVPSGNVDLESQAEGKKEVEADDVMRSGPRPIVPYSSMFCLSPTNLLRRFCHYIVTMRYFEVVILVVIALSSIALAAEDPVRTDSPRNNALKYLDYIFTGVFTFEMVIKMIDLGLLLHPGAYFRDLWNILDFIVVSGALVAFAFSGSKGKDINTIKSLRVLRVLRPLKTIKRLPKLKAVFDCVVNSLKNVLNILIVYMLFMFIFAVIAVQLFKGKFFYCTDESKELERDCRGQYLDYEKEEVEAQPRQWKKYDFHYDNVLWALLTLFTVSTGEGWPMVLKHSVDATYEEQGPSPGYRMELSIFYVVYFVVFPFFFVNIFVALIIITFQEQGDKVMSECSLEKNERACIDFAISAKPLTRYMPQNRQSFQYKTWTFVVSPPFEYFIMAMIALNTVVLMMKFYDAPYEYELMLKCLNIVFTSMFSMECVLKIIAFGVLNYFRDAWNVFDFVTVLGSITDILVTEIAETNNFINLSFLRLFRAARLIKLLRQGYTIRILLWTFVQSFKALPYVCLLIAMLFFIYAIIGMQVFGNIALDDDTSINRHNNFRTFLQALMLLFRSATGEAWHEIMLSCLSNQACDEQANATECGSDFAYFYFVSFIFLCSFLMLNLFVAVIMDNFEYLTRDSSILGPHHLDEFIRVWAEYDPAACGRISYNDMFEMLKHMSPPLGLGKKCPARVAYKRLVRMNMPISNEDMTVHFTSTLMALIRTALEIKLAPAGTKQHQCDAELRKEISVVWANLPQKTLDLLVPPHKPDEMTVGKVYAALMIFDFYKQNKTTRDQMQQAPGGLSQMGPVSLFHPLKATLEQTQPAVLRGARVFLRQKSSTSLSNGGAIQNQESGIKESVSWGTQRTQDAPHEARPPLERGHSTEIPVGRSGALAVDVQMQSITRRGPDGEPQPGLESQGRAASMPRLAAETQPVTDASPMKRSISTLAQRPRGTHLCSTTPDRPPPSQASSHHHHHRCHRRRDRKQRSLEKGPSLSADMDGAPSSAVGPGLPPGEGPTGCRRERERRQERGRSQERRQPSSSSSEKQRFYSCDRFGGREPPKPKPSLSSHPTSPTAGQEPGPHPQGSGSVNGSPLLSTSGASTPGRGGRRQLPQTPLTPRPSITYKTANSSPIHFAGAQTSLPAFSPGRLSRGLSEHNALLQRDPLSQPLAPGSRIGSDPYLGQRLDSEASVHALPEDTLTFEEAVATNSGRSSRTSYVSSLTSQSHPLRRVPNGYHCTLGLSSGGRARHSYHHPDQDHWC
T1 sequence (P54289 25-1103, further chain): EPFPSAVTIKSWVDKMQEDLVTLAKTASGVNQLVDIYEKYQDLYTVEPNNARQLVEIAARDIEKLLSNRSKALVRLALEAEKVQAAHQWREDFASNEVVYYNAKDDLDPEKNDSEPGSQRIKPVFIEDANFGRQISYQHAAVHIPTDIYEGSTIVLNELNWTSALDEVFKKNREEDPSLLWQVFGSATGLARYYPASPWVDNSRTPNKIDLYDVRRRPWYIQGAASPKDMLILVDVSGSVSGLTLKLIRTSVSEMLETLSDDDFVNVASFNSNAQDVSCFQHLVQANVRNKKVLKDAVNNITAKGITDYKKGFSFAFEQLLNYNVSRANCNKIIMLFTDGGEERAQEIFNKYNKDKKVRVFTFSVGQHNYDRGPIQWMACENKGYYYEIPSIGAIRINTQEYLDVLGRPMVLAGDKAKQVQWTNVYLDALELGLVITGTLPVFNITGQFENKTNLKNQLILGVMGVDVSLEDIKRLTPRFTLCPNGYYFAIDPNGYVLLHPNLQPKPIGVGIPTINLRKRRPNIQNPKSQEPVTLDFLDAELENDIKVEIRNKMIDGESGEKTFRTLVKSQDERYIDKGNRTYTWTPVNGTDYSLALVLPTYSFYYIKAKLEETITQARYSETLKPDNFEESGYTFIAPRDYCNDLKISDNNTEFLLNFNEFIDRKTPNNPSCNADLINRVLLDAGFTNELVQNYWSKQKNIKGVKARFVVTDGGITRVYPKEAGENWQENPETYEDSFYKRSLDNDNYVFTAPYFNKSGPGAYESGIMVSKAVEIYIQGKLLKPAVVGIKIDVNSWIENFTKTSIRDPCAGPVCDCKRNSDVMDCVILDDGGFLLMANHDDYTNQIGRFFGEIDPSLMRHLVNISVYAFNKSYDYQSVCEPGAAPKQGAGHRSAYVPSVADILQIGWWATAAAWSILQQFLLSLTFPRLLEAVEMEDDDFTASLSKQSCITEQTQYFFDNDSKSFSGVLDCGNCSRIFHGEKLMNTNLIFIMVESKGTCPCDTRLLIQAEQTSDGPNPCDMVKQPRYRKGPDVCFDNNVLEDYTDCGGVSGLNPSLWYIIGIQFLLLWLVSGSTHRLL
T1 sequence (P54284 whole entry, further chain): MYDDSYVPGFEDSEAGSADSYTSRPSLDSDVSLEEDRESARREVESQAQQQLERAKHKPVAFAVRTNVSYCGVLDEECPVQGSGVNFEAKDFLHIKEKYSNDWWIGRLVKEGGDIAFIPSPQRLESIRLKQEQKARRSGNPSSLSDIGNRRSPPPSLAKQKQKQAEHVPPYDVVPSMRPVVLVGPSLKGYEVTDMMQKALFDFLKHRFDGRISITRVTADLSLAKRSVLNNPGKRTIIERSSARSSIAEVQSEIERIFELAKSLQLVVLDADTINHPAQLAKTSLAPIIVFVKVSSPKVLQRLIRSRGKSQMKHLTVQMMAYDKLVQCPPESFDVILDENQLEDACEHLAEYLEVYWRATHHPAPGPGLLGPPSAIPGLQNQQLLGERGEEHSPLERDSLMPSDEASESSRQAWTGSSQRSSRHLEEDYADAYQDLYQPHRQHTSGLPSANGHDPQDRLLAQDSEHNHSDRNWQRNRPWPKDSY

SMILES | inhibition at 3 µM [%]
Cc1c(-c2ccc(Cl)cc2)c(C(=O)N2CCOCC2)n(Cc2ncn(C)n2)c1C(F)(F)F [Example 019, [3-(4-Chlorophenyl)-4-methyl-1-[(1-methyl-1H-[1,2,4]triazol-3-yl)-methyl]-5-(trifluoromethyl)-1H-pyrrol-2-yl]-morpholin-4-yl-methanone] | 75 to 95
Cc1c(-c2ccc(Cl)cc2)c(C(=O)N(C)CC(C)(C)C)n(-c2cnccn2)c1C(F)(F)F [Example 049, 3-(4-Chlorophenyl)-N-(2,2-dimethyl-propyl)-N,4-dimethyl-1-pyrazin-2-yl-5-(trifluoromethyl)-1H-pyrrole-2-carboxylic acid amide] | 75 to 95
CCc1cc(Cn2c(C(=O)N(C)CCS(C)(=O)=O)c(-c3ccc(Cl)cc3)c(C)c2C(F)(F)F)on1 [Example 001, 3-(4-Chlorophenyl)-1-[(3-ethyl-isoxazol-5-yl)-methyl]-N,4-dimethyl-N-(2-methylsulfonyl-ethyl)-5-(trifluoromethyl)-1H-pyrrole-2-carboxylic acid amide] | > 95
Cc1c(-c2ccc(Cl)cc2)c(C(=O)N2CC(C)(O)C2)n(-c2cnccn2)c1C(F)(F)F [Example 051, [3-(4-Chlorophenyl)-4-methyl-1-pyrazin-2-yl-5-(trifluoromethyl)-1H-pyrrol-2-yl]-(3-hydroxy-3-methyl-azetidin-1-yl)-methanone] | 40 to 75
Cc1noc(Cn2c(C(=O)N(C)CCS(C)(=O)=O)c(-c3ccc(Cl)cc3)c(C)c2C(F)(F)F)n1 [Example 015, 3-(4-Chlorophenyl)-N,4-dimethyl-1-[(3-methyl-[1,2,4]oxadiazol-5-yl)-methyl]-N-(2-methylsulfonyl-ethyl)-5-(trifluoromethyl)-1H-pyrrole-2-carboxylic acid amide] | 75 to 95
CN(CC(C)(C)C)C(=O)c1c(-c2ccc(Cl)cc2)cc(C(F)(F)F)n1Cc1nccn1C [Example 025, 3-(4-Chlorophenyl)-N-(2,2-dimethyl-propyl)-N-methyl-1-[(1-methyl-1H-imidazole-2-yl)-methyl]-5-(trifluoromethyl)-1H-pyrrole-2-carboxylic acid amide] | 75 to 95
Cc1c(-c2ccc(Cl)cc2)c(C(=O)N(C)C(C)C)n(Cc2ncccn2)c1C(F)(F)F [Example 061, 3-(4-Chlorophenyl)-N-isopropyl-N,4-dimethyl-1-(pyrimidin-2-yl-methyl)-5-(trifluoromethyl)-1H-pyrrole-2-carboxylic acid amide] | > 95
Cc1ncc(Cn2c(C(F)(F)F)cc(-c3ccc(Cl)cc3)c2C(=O)N(C)CC(C)(C)C)cn1 [Example 034, 3-(4-Chlorophenyl)-N-(2,2-dimethyl-propyl)-N-methyl-1-[(2-methyl-pyrimidin-5-yl)-methyl]-5-(trifluoromethyl)-1H-pyrrole-2-carboxylic acid amide] | 75 to 95
Cc1c(-c2ccc(Cl)cc2)c(C(=O)N(C)CCS(C)(=O)=O)n(Cc2nccn2C)c1C(F)(F)F [Example 002, 3-(4-Chlorophenyl)-N,4-dimethyl-1-[(1-methyl-1H-imidazole-2-yl)-methyl]-N-(2-methylsulfonyl-ethyl)-5-(trifluoromethyl)-1H-pyrrole-2-carboxylic acid amide] | 40 to 75
Cc1c(-c2ccc(Cl)cc2)c(C(=O)N2CCOCC2)n(Cc2ccnn2C)c1C(F)(F)F [Example 016, [3-(4-Chlorophenyl)-4-methyl-1-[(2-methyl-2H-pyrazol-3-yl)-methyl]-5-(trifluoromethyl)-1H-pyrrol-2-yl]-morpholin-4-yl-methanone] | 75 to 95
Cc1nc(Cn2c(C(F)(F)F)cc(-c3ccc(Cl)cc3)c2C(=O)N(C)CC(C)(C)C)no1 [Example 012, 3-(4-Chlorophenyl)-N-(2,2-dimethyl-propyl)-N-methyl-1-[(5-methyl-[1,2,4]oxadiazol-3-yl)-methyl]-5-(trifluoromethyl)-1H-pyrrole-2-carboxylic acid amide] | > 95
Cc1c(-c2ccc(Cl)cc2)c(C(=O)N2CCOCC2)n(Cc2ccc(F)cn2)c1C(F)(F)F [Example 044, [3-(4-Chlorophenyl)-1-[(5-fluoro-pyridin-2-yl)-methyl]-4-methyl-5-(trifluoromethyl)-1H-pyrrol-2-yl]-morpholin-4-yl-methanone] | > 95
